Test results reported in patent publication US20180110743A1, “COMPOSITIONS AND METHODS FOR TREATING HEPATOCELLULAR CARCINOMA” (Northwestern University, priority 2015, published 2018).
Like-named read-outs stand apart in the source and are kept apart here.

Tests used:
K562/ADR = assay: Growth inhibition IC50 in multidrug-resistant vs parental cells (resistance factor), K562/ADR; assay type: cell-based; details: ratio of IC50 in K562/ADR to sensitive parental cells
Method: (§1) To address this point, the IC50 of MEAN in cell lines with or without activated p-glycoprotein were compared based on the rationale that if an agent is a substrate, its IC50 (growth inhibition in this case) will increase substantially in cells with activated p-glycoproteins (multi-drug resistant cells). Three separate experiments were carried out to determine the values of IC50, as mean±standard deviation (μM), and the inhibition rates of each concentration of compounds were tested in triplicate. The resistance factor (RF) was calculated as the ratio of the IC50 value of the multidrug-resistant cells to that of the corresponding sensitive parental cells.
(§2) IC50 of MEAN and reference compounds, doxorubicin and vincristine (VCR), were evaluated in three MDR expressing sublines: K562/ADR, MCF-7/ADR, and KB/VCR developed from resistance to Adriamycin (ADR) (FIG. 4C). For each of these cell lines, the RFs were measured to indicate the anti-MDR properties of the compounds. The resistance factor for doxorubicin in K562/ADR and MCF-7/ADR sublines and for vincristine in the KB/VCR subline were 74.1, 54.0, and 51.2.

MCF-7/ADR = assay: Growth inhibition IC50 in multidrug-resistant vs parental cells (resistance factor), MCF-7/ADR; assay type: cell-based; details: ratio of IC50 in MCF-7/ADR to sensitive parental cells
Method: as §1, §2

Huh7-luc xenograft = Huh7-luc xenograft tumor growth in nude mice; assay type: in vivo; details: 15 mg/kg each agent, IP, 5 days-on and 2 days-off for 42 days
Method: (§3) FIG. 1. MEAN inhibits Huh7-luc xenograft tumor growth more potently than sorefenib in nude mice. Ten days after inoculation of 10^7 tumor cells subcutaneously, mice were treated with MEAN (15 mg/kg), sorafenib (15 mg/kg), or MEAN and sorafenib in combination at 15 mg/kg each, or vehicle through IP at a schedule of 5 days-on and 2 days-off for 42 days. The tumor growths were measured by whole mount imaging of luciferin florescence (representative images) (A) photon counts biweekly (B) and photon count at end of the experiment, day 42th (C), by volume (D), and by tumor weight at the experimental end point (E). Statistical analyses using t test are shown in (C and E), where *=p<0.5 and **=p<0.01. Where there is not black bar indicates p>0.5 (n=5).
(§4) HepG2-luc and Huh7-luc xenograft studies of efficacy and toxicity: Male nu/nu (nude) mice (18-20 g at experiment initiation) were maintained at the vivarium of Zhejiang University in a pathogen-free unit, under a 12-hour light/dark cycle. […] Images were collected and analyzed with Living Image software (Slidebook 4.1, Denver, Colo.). Tumor volumes were determined twice weekly by mechanically measuring the length (a) and width (b), with volume=ab^2/2. Tumor weights were measured at the experimental end point, and statistical analysis was performed using Student's t test. […]

HepG2-luc xenograft = HepG2-luc xenograft tumor growth in nude mice; assay type: in vivo; details: 15 mg/kg each agent, IP, 5 days-on and 2 days-off for 42 days
Method: as §3, with “FIG. 2.” for “FIG. 1.”, “inhibits HepG2-luc” for “inhibits Huh7-luc”
as §4

[1] = Toxicity in treated xenograft mice: body weight, behavior, eating, stool; assay type: in vivo; details: 15 mg/kg each agent, 5 days on and 2 days off, six weeks
Method: FIG. 3. Toxicity induced by treatment of MEAN, sorafenib or a combination of both were measured against vehicle treated group through monitoring body weight changes throughout treatment course (A) and detecting the serum levels of liver enzymes at the experimental end point (B). The recovery of liver enzymes days after experimental end point (42nd day). n=10. a: each group vs Vehicle, b: sorafenib vs MEAN, c: M+S vs MEAN. *: p<0.05, **: p<0.01, Sorafenib vs M+S: has no difference.
HepG2-luc and Huh7-luc xenograft studies of efficacy and toxicity: Male nu/nu (nude) mice (18-20 g at experiment initiation) were maintained at the vivarium of Zhejiang University in a pathogen-free unit, under a 12-hour light/dark cycle. […] Images were collected and analyzed with Living Image software (Slidebook 4.1, Denver, Colo.). Tumor volumes were determined twice weekly by mechanically measuring the length (a) and width (b), with volume=ab^2/2. Tumor weights were measured at the experimental end point, and statistical analysis was performed using Student's t test.
To determine whether the combinational treatment by MEAN and sorefenib could increase toxicity compared to those caused by monotherapy, the toxicity induced by the treatment with either agent alone and in combination was evaluated in treated animals. […]

[2] = Serum ALT and AST measurement in treated mice; assay type: in vivo; details: 42nd day of treatment, 15 mg/kg each agent, vs vehicle
Method: Blood samples were collected from each mouse at the end of the 42th day. Serum alanine aminotransferase aspartate (ALT) and aspartate aminotransferase (AST) were measured with an automated biochemical analyzer (DRI-CHEM 4000ie, FUJIFILM).
To determine whether the combinational treatment by MEAN and sorefenib could increase toxicity compared to those caused by monotherapy, the toxicity induced by the treatment with either agent alone and in combination was evaluated in treated animals. Toxicity was assessed by periodic body weight, mice behavior (grooming), eating, stool consistency, and serum liver enzymes levels (alanine aminotransferase, ALT, and aspartate aminotransferase, AST) at the experimental end points. […] This increase is reversible within 2 weeks of the treatment withdrawal (FIG. 3C).

c-myc [3] = assay: Western blot of treated xenograft tumor tissue, c-myc; assay type: in vivo, mice; details: Huh7 and HepG2 tumors, end of 42 day treatment
Method: (§5) FIG. 6. […] The intensity of vehicle is set at 1 and ratios of treatment/vehicle are plotted in each quantitative graph.
(§6) Cells or tumor chunks were lysed with RIPA lysis buffer (Beyotime Biotechnology, Jiangsu, China) containing 1% Halt™ Protease and Phosphatase Inhibitor Cocktail (100X) (Thermo Fisher Scientific). 20 ug of total protein per lanewere separated by 10% SDS-PAGE gels and transferred to polyvinylidene difluoride membranes (Millipore, Bedford, Mass.), and blocked with 1% BSA in TBS-Tween 20 (0.05%, v/v) for 1 h at room temperature. The membrane was incubated with primary antibody overnight at 4° C. Antibodies for c-Myc and GAPDH were obtained from Cell Signaling Technology (Beverly, Mass.), and TXNIP, SHP-1, and SIRT1 were obtained from Abcam (Cambridge, Mass.). After washing, the membrane was incubated with the appropriate horseradish peroxidase-conjugated secondary antibody (1:3000; Eptmomics) for 1 h. Blots were visualized by ECL-associated fluorography (Millipore). Relative band intensity was quantified using the ImageJ software to determine c-myc, TXNIP, SHP-1, and SIRT1 levels.
To evaluate whether the gene expression changes in response to MEAN is cell type specific, another HCC cell line, Huh7 was also examined for the corresponding gene expression changes upon the treatment by MEAN. […]

SIRT1 [4] = assay: Western blot of treated xenograft tumor tissue, SIRT1; assay type: in vivo, mice; details: Huh7 and HepG2 tumors, end of 42 day treatment
Method: as §5, §6

SHP-1 [5] = assay: Western blot of treated xenograft tumor tissue, SHP-1; assay type: in vivo, mice; details: Huh7 and HepG2 tumors, end of 42 day treatment
Method: as §5, §6

TXNIP [6] = assay: Western blot of treated xenograft tumor tissue, TXNIP; assay type: in vivo, mice; details: Huh7 and HepG2 tumors, end of 42 day treatment
Method: as §5, §6

HCC = details: cited from earlier work
KB/VCR = assay: Growth inhibition IC50 in multidrug-resistant vs parental cells (resistance factor), KB/VCR; assay type: cell-based; details: ratio of IC50 in KB/VCR to sensitive parental cells
Method: as §1, §2

HepG2 cells = assay: Cell cycle profiling by Dapi staining and flow cytometry; assay type: cell-based, human; details: 5 uM for 24 hours
Method: After treatment, cells were washed with PBS two times and centrifugation then, re-suspended in PBS (Ca and Mg free). 3.0m1 ice cold 95% ethanol was added to the cell pellet in a dropwise manner while vortexing and then was incubated for 30 minutes. The volume was brought up to 15 mL with PBS and the cells was pelleted and washed one time with PBS via centrifugation. Cells were resuspended in 1 ml of 10 ug/ml Dapi in PBS with 0.1% TritonX-100 to a concentration of 1×10^6cells/ml and incubated for 30 minutes on ice. The samples were then analyzed through flowcytometery and the DNA contents of the cellular population were sorted and evaluated.
Additional evidence supporting the differences between MEAN and AMN came from their differential impact on cell cycle.

c-myc [7] = assay: RNA array analysis of treated HepG2 cells; assay type: cell-based, human; details: 20 μM for 6 hours, vs DMSO
Method: RNA expression analysis was performed by GeneChip® PrimeView™ Human Gene Expression Array. Initially, genes were identified as being differentially expressed on the basis of a statistical significance (P <0.05) and 1.5-fold change (up or down) in expression levels in each comparison.
The choice of the treatment dose was based on the PK analyses (supplemental material) that the serum concentration of MEAN is around 20 uM approximately 6 hours after injection. Furthermore a relatively short duration of treatment was designed to catch the more primary cellular responses at the early stage of the treatment. GeneChip® PrimeView™ Human Gene Expression Array was used in triplicates to quantify RNA extracted from treated HepG2 cells.

c-myc [8] = assay: Western blot of treated HCC cells in culture, c-myc; assay type: cell-based, human; details: HepG2 and Huh7 cells; less than 10 uM (FIG. 5B and D)
Method: as §6

SIRT1 [9] = assay: Western blot of treated HCC cells in culture, SIRT1; assay type: cell-based, human; details: HepG2 and Huh7 cells
Method: as §6

SHP-1 [10] = assay: Western blot of treated HCC cells in culture, SHP-1; assay type: cell-based, human; details: HepG2 and Huh7 cells in culture
Method: as §6

TXNIP [11] = assay: Expression in treated HCC cells in culture, TXNIP; assay type: cell-based, human; details: treated cells in vitro
Method: as §6

COc1cccc2c1C(=O)c1c(O)c3c(c(O)c1C2=O)C[C@@](O)(C(=O)CO)C[C@@H]3O[C@H]1C[C@H](N)[C@H](O)[C@H](C)O1 [doxorubicin, reference compound]
resistance factor (RF) (K562/ADR): 74.1
resistance factor (RF) (MCF-7/ADR): 54.0

CNC(=O)c1cc(Oc2ccc(NC(=O)Nc3ccc(Cl)c(C(F)(F)F)c3)cc2)ccn1 [sorafenib, reference compound]
tumor growth compared with vehicle (luciferase emission, tumor volume, tumor weight) (Huh7-luc xenograft): significant tumor growth retardation
tumor growth compared with vehicle (luciferase emission, tumor volume, tumor weight) (HepG2-luc xenograft): significant tumor growth retardation
body weight change [1]: did not significantly alter body weight
serum liver enzymes (ALT and AST) at experimental end point [2]: more significantly increased
c-myc protein level in tumors (c-myc [3]): does not significantly change
SIRT1 protein level in tumors (SIRT1 [4]): does not significantly change
SHP-1 protein level in tumors (SHP-1 [5]): does not significantly change
TXNIP protein level in tumors (TXNIP [6]): does not significantly change
median overall survival (HCC; Asian study): 6.5 months
median overall survival (HCC; SHARP study): 10.7 months

CC[C@]1(O)C[C@H]2CN(CCc3c([nH]c4ccccc34)[C@@](C(=O)OC)(c3cc4c(cc3OC)N(C=O)[C@H]3[C@@](O)(C(=O)OC)[C@H](OC(C)=O)[C@]5(CC)C=CCN6CC[C@]43[C@@H]65)C2)C1 [vincristine, reference compound]
resistance factor (RF) (KB/VCR): 51.2

Amonafide [AMN, reference compound]
cell cycle profile (DNA content) (HepG2 cells): G2 accumulation with diminishing Gl
c-myc RNA expression level (c-myc [7]): significantly reduce
c-myc (myc) protein level (c-myc [8]): does not significantly reduces
SIRT1 protein level (SIRT1 [9]): not significantly changed
SHP-1 protein level (SHP-1 [10]): does not significantly impact
TXNIP expression (TXNIP [11]): significantly increase
